Reference: ChEMBL document CHEMBL3739305, “A synthetic chalcone derivative, 2-hydroxy-3',5,5'-trimethoxychalcone (DK-139), suppresses the TNFα-induced invasive capability of MDA-MB-231 human breast cancer cells by inhibiting NF-κB-mediated GROα expression” (Bioorg Med Chem Lett, 2016)
The source made the active and inactive calls. The calls are words filed in the database; no cut-off is given here.

Legend:
[1] = target: T1, Inhibitor of NF-kappa-B kinase (IKK) (Homo sapiens) (UniProt O14920+O15111+Q9Y6K9); experiment: Inhibition of IKK in human MDA-MB-231 cells assessed as inhibition of TNF-alpha-induced IkappaB phosphorylation at Ser-32 residue at 5 and 10 uM pretreated for 30 mins followed by addition of TNF-alpha for 1 hr by immunoblot analysis; type: cell-based
[2] = target: T1, Inhibitor of NF-kappa-B kinase (IKK) (Homo sapiens); experiment: Inhibition of IKK in human MDA-MB-231 cells assessed as decrease in TNF-alpha-induced GROalpha mRNA level pretreated with compound for 30 mins followed by addition of TNF-alpha measured after 12 hrs by QR-PCR analysis; type: cell-based
[3] = system: MDA-MB-231; experiment: Inhibition of TNF-alpha-induced cell motility in human MDA-MB-231 cells assessed as lamellipodium projection at 10 uM pretreated for 30 mins followed by addition of TNF-alpha measured after 10 mins by rhodamine- phalloidin staining based assay; type: functional
[4] = target: T1, Inhibitor of NF-kappa-B kinase (IKK) (Homo sapiens); experiment: Inhibition of IKK in human MDA-MB-231 cells assessed as inhibition of TNF-alpha-induced p65/RelA phosphorylation at Ser-536 residue at 5 and 10 uM pretreated for 30 mins followed by addition of TNF-alpha for 1 hr by immunoblot analysis; type: cell-based
[5] = target: T2, Inhibitor of nuclear factor kappa-B kinase subunit alpha (Homo sapiens) (UniProt O15111); experiment: Inhibition of TNF-alpha-induced IKK-alpha phosphorylation in human MDA-MB-231 cells at Ser176 residue at 5 and 10 uM pretreated for 30 mins followed by addition of TNF-alpha for 1 hr by immunoblot analysis; type: cell-based
T2 sequence (whole entry): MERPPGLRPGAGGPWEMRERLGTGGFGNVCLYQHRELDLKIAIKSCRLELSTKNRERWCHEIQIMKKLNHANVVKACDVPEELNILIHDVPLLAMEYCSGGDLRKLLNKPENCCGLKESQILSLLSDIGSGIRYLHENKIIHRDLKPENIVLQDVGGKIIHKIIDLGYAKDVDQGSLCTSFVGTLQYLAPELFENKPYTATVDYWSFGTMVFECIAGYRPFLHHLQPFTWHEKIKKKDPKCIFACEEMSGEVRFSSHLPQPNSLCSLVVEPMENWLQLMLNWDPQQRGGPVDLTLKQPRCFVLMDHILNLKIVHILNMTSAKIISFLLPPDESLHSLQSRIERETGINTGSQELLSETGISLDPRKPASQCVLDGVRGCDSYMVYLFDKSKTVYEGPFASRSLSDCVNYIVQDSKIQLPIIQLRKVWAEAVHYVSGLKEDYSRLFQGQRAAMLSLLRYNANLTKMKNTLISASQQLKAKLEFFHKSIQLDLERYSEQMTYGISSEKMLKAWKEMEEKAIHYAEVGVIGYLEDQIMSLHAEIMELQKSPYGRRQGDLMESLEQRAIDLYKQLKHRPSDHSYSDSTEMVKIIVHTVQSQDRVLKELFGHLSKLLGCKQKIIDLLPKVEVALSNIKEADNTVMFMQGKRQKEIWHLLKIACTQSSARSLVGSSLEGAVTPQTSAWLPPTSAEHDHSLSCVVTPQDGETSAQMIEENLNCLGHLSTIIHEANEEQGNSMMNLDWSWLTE

[6] = target: T1, Inhibitor of NF-kappa-B kinase (IKK) (Homo sapiens); experiment: Inhibition of IKK in human MDA-MB-231 cells assessed as decrease in TNF-alpha-induced GROalpha mRNA level at 10 uM pretreated for 30 mins followed by addition of TNF-alpha measured after 12 hrs by QR-PCR analysis; type: cell-based
[7] = target: T3, Inhibitor of nuclear factor kappa-B kinase subunit beta (Homo sapiens) (UniProt O14920); experiment: Inhibition of TNF-alpha-induced IKK-beta phosphorylation at Ser180 residue in human MDA-MB-231 cells at 5 and 10 uM pretreated for 30 mins followed by addition of TNF-alpha for 1 hr by immunoblot analysis; type: cell-based
T3 sequence (whole entry): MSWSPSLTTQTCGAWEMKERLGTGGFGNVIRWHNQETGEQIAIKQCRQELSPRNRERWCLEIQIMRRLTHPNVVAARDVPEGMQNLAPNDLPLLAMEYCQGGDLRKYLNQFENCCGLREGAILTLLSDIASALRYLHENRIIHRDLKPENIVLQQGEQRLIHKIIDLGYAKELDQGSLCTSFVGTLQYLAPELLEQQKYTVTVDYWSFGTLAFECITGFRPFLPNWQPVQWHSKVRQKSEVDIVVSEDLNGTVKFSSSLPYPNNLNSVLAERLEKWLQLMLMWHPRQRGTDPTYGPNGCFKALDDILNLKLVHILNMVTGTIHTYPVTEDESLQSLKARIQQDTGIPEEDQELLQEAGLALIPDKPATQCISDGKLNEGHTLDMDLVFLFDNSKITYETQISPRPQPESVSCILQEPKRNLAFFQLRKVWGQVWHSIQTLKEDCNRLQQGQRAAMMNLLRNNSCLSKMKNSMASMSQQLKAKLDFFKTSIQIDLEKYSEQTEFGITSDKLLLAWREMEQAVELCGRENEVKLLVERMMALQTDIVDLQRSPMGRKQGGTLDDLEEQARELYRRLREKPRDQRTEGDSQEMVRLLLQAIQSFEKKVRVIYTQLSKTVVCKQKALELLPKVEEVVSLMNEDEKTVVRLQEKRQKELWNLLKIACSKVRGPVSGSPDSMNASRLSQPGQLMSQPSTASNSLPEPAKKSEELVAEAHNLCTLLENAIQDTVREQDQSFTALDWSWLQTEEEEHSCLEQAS

[8] = system: MDA-MB-231; experiment: Inhibition of TNF-alpha-induced cell invasion in human MDA-MB-231 cells assessed as decrease in spindle-like protrusions at 10 uM pretreated for 30 mins followed by addition of TNF-alpha by microscopic analysis; type: functional, cell-based
[9] = target: T1, Inhibitor of NF-kappa-B kinase (IKK) (Homo sapiens); experiment: Inhibition of IKK in human MDA-MB-231 cells assessed as decrease in TNF-alpha-induced GROalpha mRNA level pretreated with compound for 30 mins followed by addition of TNF-alpha measured after 12 hrs by RT-PCR analysis; type: cell-based
[10] = system: MDA-MB-231; experiment: Inhibition of TNF-alpha-induced cell migration in human MDA-MB-231 cells at 10 uM pretreated for 30 mins followed by addition of TNF-alpha measured after 6 hrs by scratch wound healing assay; type: functional, cell-based
[11] = system: MDA-MB-231; experiment: Inhibition of TNF-alpha-induced cell invasion in human MDA-MB-231 cells at 10 uM pretreated for 30 mins followed by addition of TNF-alpha measured after 24 hrs by matrigel invasion assay; type: functional, cell-based
[12] = target: T1, Inhibitor of NF-kappa-B kinase (IKK) (Homo sapiens); experiment: Inhibition of IKK in human MDA-MB-231 cells assessed as inhibition of TNF-alpha-induced GROalpha promoter activation pretreated with compound for 30 mins followed by addition of TNF-alpha for 8 hrs by luciferase reporter gene assay; type: cell-based
[13] = target: T1, Inhibitor of NF-kappa-B kinase (IKK) (Homo sapiens); experiment: Inhibition of IKK in human MDA-MB-231 cells assessed as inhibition of TNF-alpha-induced NF-kappaB transcriptional activity pretreated with compound for 30 mins followed by addition of TNF-alpha for 8 hrs by luciferase reporter gene assay; type: cell-based
[14] = target: T1, Inhibitor of NF-kappa-B kinase (IKK) (Homo sapiens); experiment: Inhibition of IKK in human MDA-MB-231 cells assessed as inhibition of TNF-alpha-induced p65/RelA phosphorylation at Ser-536 residue in nucleus at 10 uM pretreated for 30 mins followed by addition of TNF-alpha for 1 hr by immunofluorescence analysis; type: cell-based

- inhibition [1]: Active
- inhibition [2]: Dose-dependent effect
- inhibition [4]: Active
- inhibition [5]: Active
- fold change (FC) [6]: 4.1
- inhibition [7]: Active
- inhibition [9]: Dose-dependent effect
- inhibition [12]: Dose-dependent effect
- inhibition [13]: Dose-dependent effect
- inhibition [14]: Active
SMILES: COc1cc(/C=C/C(=O)c2cc(OC)ccc2O)cc(OC)c1
- inhibition [3]: Active
- inhibition [8]: Active
- inhibition [10]: Active
- inhibition [11]: Active
